In patent US20230150981A1, “N-HETEROARYLALKYL-2-(HETEROCYCLYL AND HETEROCYCLYLMETHYL) ACETAMIDE DERIVATIVES AS SSTR4 AGONISTS” (Takeda Pharmaceutical Compnay Limited, priority 2020, published 2023):

Biological target: T1, SSTR4 (Homo sapiens, UniProt P31391)
T1 construct: host or cells: CHO-K1
Test: Inhibition of forskolin stimulated cAMP in CHO-K1 cells overexpressing SSTR4
Type: cell-based
Details: read-out: SSTR4 Activity pEC50 (converted)
Protocol: Inhibition of Forskolin Stimulated cAMP in Cells Overexpressing SSTR4
This cell-based assay measures the ability of compounds to inhibit forskolin stimulated cAMP in CHO-K1 cells overexpressing SSTR4. CHO-K1 cells overexpressing SSTR4 (CHO-SSTR4) are purchased from DiscoveRx (product code 95-0059C2). The CHO-SSTR4 cells are maintained in F12K media with 10% Fetal Bovine Serum (Hyclone), 1% Pen/Strep (Life Technologies), and 800 μg/mL G418 (Life Technologies). To perform the assay, 3000 cells are plated per well in white 384-well plate (Corning 3570) in 50 μL complete media and the cells are allowed to attach for 16 hours in a 37° C., 5% CO2 incubator. The next day, the culture media is removed from the cells and the cells are washed (added then removed) with Krebs Ringer Buffer (ZenBio, KRB-1000 mL). Test compounds are suspended in DMSO and diluted in stimulation buffer: Krebs Ringer Buffer plus 0.5% BSA (Roche), 300 μM IBMX (Sigma), and 350 nM forskolin (Sigma). The cells are incubated in 10 μL compound/stimulation buffer for 30 minutes at room temperature. Cellular cAMP levels are detected with a HTRF LANCE Ultra cAMP kit (Perkin Elmer, catalog number TRF0264).
The assay is performed in accordance with the manufacturer's instructions. Five μL of diluted Eu-W8044 labeled streptavidin (dilution: 1:50 in cAMP Detection Buffer) is added to each well. Then 5 μL of diluted biotin cAMP (dilution: 1:150 in cAMP Detection Buffer) is added to each well. The plates are covered and allowed to incubate for 60 minutes at room temperature on a shaker. HTRF (665 nm/615 nm) is read on a Perkin Elmer ENVISION plate reader. The pEC50 values are generated using Activity Base for Screening Data Management.

T1 sequence (P31391 whole entry): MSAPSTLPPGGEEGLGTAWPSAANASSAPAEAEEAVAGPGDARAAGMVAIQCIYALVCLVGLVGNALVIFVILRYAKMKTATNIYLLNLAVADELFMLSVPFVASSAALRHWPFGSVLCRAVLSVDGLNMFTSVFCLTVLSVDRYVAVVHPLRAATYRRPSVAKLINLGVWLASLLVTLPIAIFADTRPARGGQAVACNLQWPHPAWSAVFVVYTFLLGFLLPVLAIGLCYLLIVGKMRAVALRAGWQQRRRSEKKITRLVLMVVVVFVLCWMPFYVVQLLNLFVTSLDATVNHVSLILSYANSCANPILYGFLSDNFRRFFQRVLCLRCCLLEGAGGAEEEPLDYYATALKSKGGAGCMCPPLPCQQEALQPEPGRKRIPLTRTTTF

Row | Structure (SMILES) | EC50 [nM]
1 | Cc1ccc(C(NC(=O)C[C@@H]2CCCN2C)C(F)(F)F)cc1 (stereo partly drawn) [Example 158, 2-((S)-1-methylpyrrolidin-2-yl)-N-(2,2,2-trifluoro-1-(p-tolyl)ethyl)acetamide] | 398
2 | Cc1cccnc1OCC(C)(C)NC(=O)CC1CCC(C)N1C (centres unmarked) [Example 68, 2-(1,5-dimethylpyrrolidin-2-yl)-N-(2-methyl-1-((3-methylpyridin-2-yl)oxy)propan-2-yl)acetamide] | 25.1
3 | COc1c(C)cccc1C(C)(C)NC(=O)C[C@H]1CCCN1C [Example 117, (R)-N-(2-(2-methoxy-3-methylphenyl)propan-2-yl)-2-(1-methylpyrrolidin-2-yl)acetamide] | 158
4 | CCN1CCCC1CC(=O)NC1(COc2ncccc2C)CCCC1 (centres unmarked) [Example 65, 2-(1-ethylpyrrolidin-2-yl)-N-(1-(((3-methylpyridin-2-yl)oxy)methyl)cyclopentyl)acetamide] | 251
5 | CN1CCC(F)(F)C1CC(=O)NC(C)(C)c1nccc2ccccc12 (centres unmarked) [Example 97, 2-(3,3-difluoro-1-methylpyrrolidin-2-yl)-N-(2-(isoquinolin-1-yl)propan-2-yl)acetamide] | 1000
6 | Cc1ccc(C(C)(C)NC(=O)[C@H](C)CN2CCC2)cc1 (single isomer, unassigned) [Example 148] | 501
7 | Cc1cccc2c(C(C)(C)NC(=O)CC3N(C)CCC3(F)F)nccc12 (centres unmarked) [Example 98, 2-(3,3-difluoro-1-methylpyrrolidin-2-yl)-N-(2-(5-methylisoquinolin-1-yl)propan-2-yl)acetamide] | 158
8 | COc1ccccc1C(C)(C)NC(=O)[C@@H](C)CN1CCCC1 (single isomer, unassigned) [Example 76] | 631
9 | COc1ccccc1CC1(NC(=O)CC2CCCCN2C)CC1 (centres unmarked) [Example 74, N-(1-(2-methoxybenzyl)cyclopropyl)-2-(1-methylpiperidin-2-yl)acetamide] | 31.6
10 | CN1CCC[C@H]1CC(=O)NC(C)(C)[C@H]1CCc2ccccc2O1 (single isomer, unassigned) [Example 129] | 398
11 | CN1CCC[C@@H]1CC(=O)NC(C)(C)COc1ncccc1C(F)F [Example 84, (R)-N-(1-((3-(difluoromethyl)pyridin-2-yl)oxy)-2-methylpropan-2-yl)-2-(1-methylpyrrolidin-2-yl)acetamide] | 100
12 | CCN1CCC[C@H]1CC(=O)NC(C)(C)COc1ncccc1C(F)(F)F [Example 51, (S)-2-(1-ethylpyrrolidin-2-yl)-N-(2-methyl-1-((3-(trifluoromethyl)pyridin-2-yl)oxy)propan-2-yl)acetamide] | 126
13 | Cc1cccnc1OCC1(NC(=O)[C@@H](C)[C@H]2CCCN2C)CC1 (single isomer, unassigned) [Example 126] | 398
14 | CN1CCC[C@H]1CC(=O)NC(C)(C)c1cccc(F)c1Cl [Example 93, (S)-N-(2-(2-chloro-3-fluorophenyl)propan-2-yl)-2-(1-methylpyrrolidin-2-yl)acetamide] | 63.1
15 | Cc1cccc(C(C)(C)NC(=O)[C@H](C)CN2CCC2)c1Cl (single isomer, unassigned) [Example 144] | 100
16 | Cc1ccc(OCC(C)(C)NC(=O)C[C@@H]2CCCN2C)nc1 [Example 103, (S)-N-(2-methyl-1-((5-methylpyridin-2-yl)oxy)propan-2-yl)-2-(1-methylpyrrolidin-2-yl)acetamide] | 501
17 | C[C@H](CN1CCC1)C(=O)NC(C)(C)c1cccc(F)c1 (single isomer, unassigned) [Example 152] | 1000
18 | Cc1cccnc1OCC1(NC(=O)CC2CCCCN2C)CC1 (centres unmarked) [Example 120, 2-(1-methylpiperidin-2-yl)-N-(1-(((3-methylpyridin-2-yl)oxy)methyl)cyclopropyl)acetamide] | 251
19 | Cc1c(F)cccc1C(C)(C)NC(=O)C[C@@H]1CCCN1C [Example 89, (S)-N-(2-(3-fluoro-2-methylphenyl)propan-2-yl)-2-(1-methylpyrrolidin-2-yl)acetamide] | 126
20 | Cc1cccnc1OCC1(NC(=O)[C@@H](C)[C@@H]2CCCN2C)CC1 (single isomer, unassigned) [Example 176] | 126
21 | CN1CCC[C@H]1CC(=O)NC(C)(C)COc1cc(Cl)c(F)cn1 [Example 105, (S)-N-(1-((4-chloro-5-fluoropyridin-2-yl)oxy)-2-methylpropan-2-yl)-2-(1-methylpyrrolidin-2-yl)acetamide] | 794

Row | Structure (SMILES) | EC50 [nM]
22 | Cc1cccnc1OCC(C)(C)NC(=O)[C@@H](C)[C@@H]1CCCN1C (racemic) [Example 67, (S)-N-(2-methyl-1-((3-methylpyridin-2-yl)oxy)propan-2-yl)-2-((S)-1-methylpyrrolidin-2-yl)propanamide and (R)-N-(2-methyl-1-((3-methylpyridin-2-yl)oxy)propan-2-yl)-2-((R)-1-methylpyrrolidin-2-yl)propanamide] | 1.58
23 | Cc1cccnc1OCC1(NC(=O)[C@H](C)[C@H]2CCCN2C)CC1 (single isomer, unassigned) [Example 177] | > 10000
24 | O=C(CCN1CCC1)N[C@@H](c1cc(F)ccc1F)C(F)F (single isomer, unassigned) [Example 168] | > 5010
25 | CN1CCC[C@H]1CC(=O)NC(C)(C)COc1ncccc1OC(F)(F)F [Example 72, (S)-N-(2-methyl-1-((3-(trifluoromethoxy)pyridin-2-yl)oxy)propan-2-yl)-2-(1-methylpyrrolidin-2-yl)acetamide] | 20
26 | CN1CCC[C@H]1CC(=O)NC(C)(C)c1cc(Cl)ccc1Cl [Example 33, (S)-N-(2-(2,5-dichlorophenyl)propan-2-yl)-2-(1-methylpyrrolidin-2-yl)acetamide] | 79.4
27 | CN1CCCCC1CC(=O)NC(C)(C)COc1ncccc1C(F)(F)F (centres unmarked) [Example 29, N-(2-methyl-1-((3-(trifluoromethyl)pyridin-2-yl)oxy)propan-2-yl)-2-(1-methylpiperidin-2-yl)acetamide] | 100
28 | CN1CCC[C@H]1CC(=O)NC(C)(C)c1cccc(Cl)c1F [Example 83, (S)-N-(2-(3-chloro-2-fluorophenyl)propan-2-yl)-2-(1-methylpyrrolidin-2-yl)acetamide] | 251
29 | O=C(CCN1CCCC1)N[C@@H](c1cccc(Cl)c1)C(F)F (single isomer, unassigned) [Example 197] | 2000
30 | CN1CCCC1CC(=O)NC(C)(C)c1cccc(Cl)c1 (centres unmarked) [Example 12, N-(2-(3-chlorophenyl)propan-2-yl)-2-(1-methylpyrrolidin-2-yl)acetamide] | 126
31 | CN1CCC[C@H]1CC(=O)NC(C)(C)c1cccc(F)c1F [Example 82, (S)-N-(2-(2,3-difluorophenyl)propan-2-yl)-2-(1-methylpyrrolidin-2-yl)acetamide] | 316
32 | C[C@H](CN1CCC1)C(=O)NC(C)(C)c1ccccc1Cl (single isomer, unassigned) [Example 133] | 200
33 | CN1CCC[C@H]1CC(=O)NC(C)(C)COc1ccccn1 [Example 123, (S)-N-(2-methyl-1-(pyridin-2-yloxy)propan-2-yl)-2-(1-methylpyrrolidin-2-yl)acetamide] | 158
34 | CC[C@H](CN1CCC1)C(=O)NC(C)(C)c1ccccc1F (single isomer, unassigned) [Example 199] | > 10000
35 | C[C@H](NC(=O)C[C@H]1CCCN1C)c1ccc(F)cc1 [Example 37, N-((S)-1-(4-fluorophenyl)ethyl)-2-((R)-1-methylpyrrolidin-2-yl)acetamide] | 1000
36 | CN1CCC[C@@H]1CC(=O)NC(C)(C)[C@H]1CCc2ccccc2O1 (single isomer, unassigned) [Example 130] | 316
37 | CC[C@H](CN1CCC1)C(=O)NC(C)(C)c1ccc(C)cc1 (single isomer, unassigned) [Example 186] | 200
38 | CN1CCC[C@@H]1CC(=O)NC(C)(C)c1ccccc1F [Example 159, (R)-N-(2-(2-fluorophenyl)propan-2-yl)-2-(1-methylpyrrolidin-2-yl)acetamide] | 398
39 | CN1CCC(F)(F)C1CC(=O)NC(C)(C)c1nccc2occc12 (centres unmarked) [Example 99, 2-(3,3-difluoro-1-methylpyrrolidin-2-yl)-N-(2-(furo[3,2-c]pyridin-4-yl)propan-2-yl)acetamide] | 3980
40 | Cc1ccnc(OCC(C)(C)NC(=O)C[C@@H]2CCCN2C)c1 [Example 102, (S)-N-(2-methyl-1-((4-methylpyridin-2-yl)oxy)propan-2-yl)-2-(1-methylpyrrolidin-2-yl)acetamide] | 631
41 | CN1CCC[C@H]1CC(=O)NC(C)(C)COc1ncccc1C1CC1 [Example 73, (S)-N-(1-((3-cyclopropylpyridin-2-yl)oxy)-2-methylpropan-2-yl)-2-(1-methylpyrrolidin-2-yl)acetamide] | 39.8
